Assays:
[1] = 101 kPa, Liquid
[2] = xn = mol fraction of the nth substance listed; details: 101 kPa, Liquid

CCC(=O)[O-].OCC[NH2+]CCO [bis(2-hydroxyethyl)ammonium propanoate]
[1]
Details | mass density [kg/m3] | viscosity [mPa·s]
293.15 K | 1142.7 | 740.28
303.15 K | 1136.1 | 322.17
313.15 K | 1129.2 | 157.97
323.15 K | 1125.2 | 96.54

CCC(=O)[O-].OCC[NH2+]CCO [bis(2-hydroxyethyl)ammonium propanoate] + CCCO
[2]
Details | mass density, 293.15 K [kg/m3] | mass density, 303.15 K [kg/m3] | mass density, 313.15 K [kg/m3] | mass density, 323.15 K [kg/m3] | viscosity, 293.15 K [mPa·s] | viscosity, 303.15 K [mPa·s] | viscosity, 313.15 K [mPa·s] | viscosity, 323.15 K [mPa·s]
x1 = 0.0585 | 846.5 | 839 | 831.3 | 823.1 | 31.6 | 15.37 | 6.146 | 3.897
x1 = 0.1031 | 875.3 | 867.9 | 860.4 | 852.6 | 53.29 | 21.15 | 9.633 | 6.039
x1 = 0.2292 | 942.2 | 935 | 927.7 | 920.9 | 120.07 | 47.98 | 21.6 | 13.44
x1 = 0.3021 | 973.6 | 966.5 | 959.3 | 952.9 | 161.5 | 66.19 | 29.62 | 18.46
x1 = 0.4017 | 1010.3 | 1003.3 | 996.2 | 990.3 | 221.9 | 91.87 | 41.98 | 26.24
x1 = 0.5009 | 1041.2 | 1034.3 | 1027.3 | 1021.9 | 288.32 | 119.16 | 56.4 | 35.31
x1 = 0.636 | 1076.2 | 1069.4 | 1062.5 | 1057.6 | 393.08 | 163.5 | 80.35 | 50.21
x1 = 0.7135 | 1093.1 | 1086.4 | 1079.5 | 1074.8 | 461.84 | 194.52 | 96.42 | 60.05
x1 = 0.8018 | 1110.2 | 1103.5 | 1096.5 | 1092.1 | 547.5 | 234.75 | 116.23 | 72
x1 = 0.8979 | 1126.6 | 1119.9 | 1113 | 1108.8 | 646.69 | 281.11 | 138.08 | 84.93
x1 = 0.9568 | 1136 | 1129.3 | 1122.4 | 1118.4 | 701.08 | 304.98 | 149.64 | 92.03
x1 = 1 | 1142.7 | 1136.1 | 1129.2 | 1125.2 | 740.28 | 322.17 | 157.97 | 96.54

CCC(=O)[O-].OCC[NH2+]CCO [bis(2-hydroxyethyl)ammonium propanoate] + CCO
[2]
Details | mass density, 293.15 K [kg/m3] | mass density, 303.15 K [kg/m3] | mass density, 313.15 K [kg/m3] | mass density, 323.15 K [kg/m3] | viscosity, 293.15 K [mPa·s] | viscosity, 303.15 K [mPa·s] | viscosity, 313.15 K [mPa·s] | viscosity, 323.15 K [mPa·s]
x1 = 0.0536 | 842.7 | 834.4 | 826.6 | 818.5 | 28.36 | 14.2 | 5.271 | 3.309
x1 = 0.1087 | 887.2 | 879.2 | 871.7 | 864.2 | 55.19 | 21.36 | 9.602 | 5.974
x1 = 0.2052 | 947 | 939.4 | 932.2 | 925.5 | 105.81 | 41.43 | 18.6 | 11.54
x1 = 0.3168 | 997.5 | 990.1 | 983 | 977.1 | 167.85 | 68.6 | 30.49 | 18.98
x1 = 0.4238 | 1034.5 | 1027.3 | 1020.2 | 1014.8 | 231.31 | 95.16 | 43.46 | 27.2
x1 = 0.5084 | 1058.3 | 1051.2 | 1044.2 | 1039.1 | 284.44 | 116.45 | 54.87 | 34.45
x1 = 0.5946 | 1078.8 | 1071.8 | 1064.9 | 1060 | 343.18 | 140.21 | 68.08 | 42.81
x1 = 0.6965 | 1099.1 | 1092.3 | 1085.4 | 1080.8 | 428.04 | 177.51 | 88.08 | 55.22
x1 = 0.804 | 1116.8 | 1110 | 1103.1 | 1098.8 | 531.61 | 226.45 | 112.51 | 70.07
x1 = 0.8895 | 1128.8 | 1122 | 1115.1 | 1111 | 626.32 | 271.72 | 133.71 | 82.61
x1 = 0.9458 | 1136 | 1129.3 | 1122.4 | 1118.3 | 686.37 | 298.35 | 146.49 | 90.38
x1 = 1 | 1142.7 | 1136.1 | 1129.2 | 1125.2 | 740.28 | 322.17 | 157.97 | 96.54

CCC(=O)[O-].OCC[NH2+]CCO [bis(2-hydroxyethyl)ammonium propanoate] + CO
[2]
Details | mass density, 293.15 K [kg/m3] | mass density, 303.15 K [kg/m3] | mass density, 313.15 K [kg/m3] | mass density, 323.15 K [kg/m3] | viscosity, 293.15 K [mPa·s] | viscosity, 303.15 K [mPa·s] | viscosity, 313.15 K [mPa·s] | viscosity, 323.15 K [mPa·s]
x1 = 0.0437 | 851.2 | 842.3 | 833.3 | 826.8 | 23.19 | 13.01 | 4.242 | 2.639
x1 = 0.1045 | 913.4 | 905.2 | 896.9 | 891.1 | 52.44 | 20.18 | 8.903 | 5.509
x1 = 0.2138 | 987.8 | 980.3 | 972.6 | 967.8 | 109.39 | 42.76 | 19 | 11.76
x1 = 0.2957 | 1024.6 | 1017.4 | 1010 | 1005.5 | 153.61 | 62.12 | 27.33 | 16.99
x1 = 0.4 | 1058.1 | 1051.2 | 1044 | 1039.7 | 210.82 | 86.11 | 38.58 | 24.16
x1 = 0.5038 | 1082.4 | 1075.6 | 1068.6 | 1064.6 | 269.65 | 109.07 | 50.82 | 32.04
x1 = 0.6125 | 1101.8 | 1095.2 | 1088.3 | 1084.5 | 337.06 | 135.36 | 65.92 | 41.76
x1 = 0.6981 | 1114 | 1107.6 | 1100.9 | 1097.1 | 399.51 | 162.04 | 80.81 | 51.21
x1 = 0.8026 | 1126.4 | 1120 | 1113.3 | 1109.7 | 496.91 | 208.61 | 104.49 | 65.82
x1 = 0.9121 | 1136.5 | 1130.1 | 1123.4 | 1119.7 | 636.96 | 276.64 | 135.75 | 84.16
x1 = 0.9587 | 1140 | 1133.5 | 1126.8 | 1123 | 692.41 | 301.08 | 147.67 | 91.46
x1 = 1 | 1142.7 | 1136.1 | 1129.2 | 1125.2 | 740.28 | 322.17 | 157.97 | 96.54

CCO [ethanol]
[1]
Details | mass density [kg/m3] | viscosity [mPa·s]
293.15 K | 789.3 | 1.18
303.15 K | 780.7 | 1.019
313.15 K | 772.5 | 0.8424
323.15 K | 763.6 | 0.7081

CCO [ethanol] + CCC(=O)[O-].OCC[NH2+]CCO
[2], x2 = 0
Details | mass density [kg/m3] | viscosity [mPa·s]
293.15 K | 789.3 | 1.18
303.15 K | 780.7 | 1.019
313.15 K | 772.5 | 0.8424
323.15 K | 763.6 | 0.7081

CO [methanol]
[1]
Details | mass density [kg/m3] | viscosity [mPa·s]
293.15 K | 791.2 | 0.6075
303.15 K | 781.8 | 0.5535
313.15 K | 772.3 | 0.501
323.15 K | 765.1 | 0.4601

CO [methanol] + CCC(=O)[O-].OCC[NH2+]CCO
[2], x2 = 0
Details | mass density [kg/m3] | viscosity [mPa·s]
293.15 K | 791.2 | 0.6075
303.15 K | 781.8 | 0.5535
313.15 K | 772.3 | 0.501
323.15 K | 765.1 | 0.4601

CCCO [propan-1-ol]
[1]
Details | mass density [kg/m3] | viscosity [mPa·s]
293.15 K | 803.2 | 2.141
303.15 K | 795.5 | 1.788
313.15 K | 787.6 | 1.391
323.15 K | 778.7 | 1.098

CCCO [propan-1-ol] + CCC(=O)[O-].OCC[NH2+]CCO
[2], x2 = 0
Details | mass density [kg/m3] | viscosity [mPa·s]
293.15 K | 803.2 | 2.141
303.15 K | 795.5 | 1.788
313.15 K | 787.6 | 1.391
323.15 K | 778.7 | 1.098
